Laboratory results taken from patent publication US10080366B2, “Agent for increasing sugar content in fruit” (RIKEN, priority 2012, dated 2018).
Like-named read-outs stand apart in the source and are kept apart here.

What was measured:
[1] = tested on: clusters of grape (variety: Crimson); assay: Estimated transpiration ratio of grape clusters (Example 9); assay type: in vivo; conditions: 10 g/L; 8 days after treatment
[2] = tested on: fruit of grape (variety: Red Globe)
Procedure: An agent for increasing a sugar content in a fruit (containing Sorbon T-20 as a spreader/sticker at a final concentration of 200 μL/L) diluted with water to have a potassium hydrogen carbonate concentration of 10 g/L was prepared. The mass of fruit of grape (variety: Red Globe) purchased on the market was measured. Then, the prepared agent for increasing a sugar content in a fruit was applied by spraying to the fruit of grape. Then, the fruit of grape was allowed to stand in an air-conditioned greenhouse (temperature: 25° C.), and the mass was measured over time (date of application: Apr. 27, 2011; dates of test: May 2, 2011, May 6, 2011, May 9, 2011, May 11, 2011, May 13, 2011, and May 16, 2011). In addition, as a control, the mass of untreated grape was measured on each date of measurement in the same manner.
On the basis of the measured mass, the estimated amount (cumulative value) of transpiration and the estimated amount of transpiration per day were calculated. The results are shown in Tables 5 and 6 and FIGS. 10 and 11.
Note that the vertical axis in FIG. 10 represents the mass (g) of the fruit of grape on each of the dates of measurement per 100 g of the fruit of grape on the date of application, and the vertical axis in FIG. 11 represents the estimated amount (g) of transpiration on each of the dates of measurement per 100 g of the fruit of grape on the date of application. The estimated amount (g) of transpiration on each of the dates of measurement per 100 g of the fruit of grape on the date of application=(the mass (g) of the fruit of grape on the date of application−the mass (g) of the fruit of grape on the date of measurement)/the mass of the fruit of grape on the date of application×100

Tomato = conditions: 6 days after treatment
Mikan = conditions: 6 days after treatment
[3] = tested on: harvested fruit of grape (variety: Barikan)
Procedure: The fruit of grape was maintained in an air-conditioned greenhouse (temperature: 25° C.), and measured for the mass over time. The sugar content of the fruit was measured before the application and 8 days after the application with a sugar content meter. Next, on the assumption that the change in the mass of the fruit was entirely due to the change in water content, calculated values of the amount of decrease in mass and the sugar content on the date (June 2) of the application were determined […] by using the following calculation formula. (Calculated as follows: the sugar content (%) calculated value))=the sugar content (%) before application×the mass (g) on the date of application/the mass (g) on the date of measurement))

[4] = 10 g/L, 25° C., mass 100 g on date of application

O=C([O-])C(O)C(O)C(=O)[O-].[K+].[K+] (racemic) [DL-Potassium tartrate, reference compound]
Estimated transpiration ratio (%) Average [1]: 22%
Estimated transpiration ratio (%) First [1]: 22%

[Cl-].[K+] [Potassium chloride, reference compound]
Estimated transpiration ratio (%) Average [1]: 25%
Estimated transpiration ratio (%) First [1]: 25%

O=C([O-])[O-].[Na+].[Na+] [Sodium carbonate, sodium carbonate]
Estimated amount (g) of transpiration per 100 g of fruit on date of application ([2]; 5 days later): 14.1 g
Mass (g) of fruit per 100 g of fruit on date of application ([2]; 5 days later (applied Apr. 27)): 85.9 g
Estimated amount (g) of transpiration per 100 g of fruit on date of application ([2]; 9 days later): 24.1 g
Mass (g) of fruit per 100 g of fruit on date of application ([2]; 9 days later): 75.9 g
Estimated amount (g) of transpiration per 100 g of fruit on date of application ([2]; 12 days later): 30.3 g
Mass (g) of fruit per 100 g of fruit on date of application ([2]; 12 days later): 69.7 g
Estimated amount (g) of transpiration per 100 g of fruit on date of application ([2]; 14 days later): 34.6 g
Mass (g) of fruit per 100 g of fruit on date of application ([2]; 14 days later): 65.4 g
Estimated amount (g) of transpiration per 100 g of fruit on date of application ([2]; 16 days later): 38.7 g
Mass (g) of fruit per 100 g of fruit on date of application ([2]; 16 days later): 61.3 g
Estimated amount (g) of transpiration per 100 g of fruit on date of application ([2]; 19 days later): 44.5 g
Mass (g) of fruit per 100 g of fruit on date of application ([2]; 19 days later): 55.5 g
Estimated transpiration ratio (%) Average [1]: 32%
Estimated transpiration ratio (%) First [1]: 32%
Ratio (%) of decrease in body weight of fruit (Tomato; dilution ratio 100 (10 g/L)): 12.7%
Ratio (%) of decrease in body weight of fruit (Mikan; dilution ratio 100 (10 g/L)): 10.4%

O=C([O-])O.[Na+] [Sodium hydrogen carbonate, sodium hydrogen carbonate]
Estimated amount (g) of transpiration per 100 g of fruit on date of application ([2]; 5 days later): 12.4 g
Mass (g) of fruit per 100 g of fruit on date of application ([2]; 5 days later (applied Apr. 27)): 87.6 g
Estimated amount (g) of transpiration per 100 g of fruit on date of application ([2]; 9 days later): 21.7 g
Mass (g) of fruit per 100 g of fruit on date of application ([2]; 9 days later): 78.3 g
Estimated amount (g) of transpiration per 100 g of fruit on date of application ([2]; 12 days later): 27.3 g
Mass (g) of fruit per 100 g of fruit on date of application ([2]; 12 days later): 72.7 g
Estimated amount (g) of transpiration per 100 g of fruit on date of application ([2]; 14 days later): 31.5 g
Mass (g) of fruit per 100 g of fruit on date of application ([2]; 14 days later): 68.5 g
Estimated amount (g) of transpiration per 100 g of fruit on date of application ([2]; 16 days later): 35.6 g
Mass (g) of fruit per 100 g of fruit on date of application ([2]; 16 days later): 64.4 g
Estimated amount (g) of transpiration per 100 g of fruit on date of application ([2]; 19 days later): 41.5 g
Mass (g) of fruit per 100 g of fruit on date of application ([2]; 19 days later): 58.5 g
Estimated transpiration ratio (%) Average [1]: 30%
Estimated transpiration ratio (%) First [1]: 33%
Estimated transpiration ratio (%) Second [1]: 28%
Ratio (%) of decrease in body weight of fruit (Tomato; dilution ratio 100 (10 g/L)): 12.8%
Ratio (%) of decrease in body weight of fruit (Mikan; dilution ratio 100 (10 g/L)): 11.4%

[Cl-].[Cl-].[Mg+2] [Magnesium chloride, reference compound]
Estimated transpiration ratio (%) Average [1]: 25%
Estimated transpiration ratio (%) First [1]: 25%

N.N.O=C(O)O [Ammonium carbonate, reference compound]
Estimated transpiration ratio (%) Average [1]: 26%
Estimated transpiration ratio (%) First [1]: 25%
Estimated transpiration ratio (%) Second [1]: 28%

O=C([O-])[O-].[Mg+2] [Magnesium carbonate, magnesium carbonate]
Estimated transpiration ratio (%) Average [1]: 32%
Estimated transpiration ratio (%) First [1]: 32%

O=C([O-])CCC(=O)[O-].[Na+].[Na+] [Disodium succinate]
Estimated transpiration ratio (%) Average [1]: 31%
Estimated transpiration ratio (%) First [1]: 31%

CC(=O)[O-].O.O.O.[Na+] [Sodium acetate trihydrate]
Estimated transpiration ratio (%) Average [1]: 34%
Estimated transpiration ratio (%) First [1]: 35%
Estimated transpiration ratio (%) Second [1]: 33%

O=P([O-])([O-])O.[Na+].[Na+] [Disodium hydrogen phosphate, disodium hydrogen phosphate]
Estimated transpiration ratio (%) Average [1]: 31%
Estimated transpiration ratio (%) First [1]: 35%
Estimated transpiration ratio (%) Second [1]: 28%

O=P([O-])([O-])[O-].[K+].[K+].[K+] [Tripotassium phosphate, tripotassium phosphate]
Estimated amount (g) of transpiration per 100 g of fruit on date of application ([2]; 5 days later): 15.9 g
Mass (g) of fruit per 100 g of fruit on date of application ([2]; 5 days later (applied Apr. 27)): 84.1 g
Estimated amount (g) of transpiration per 100 g of fruit on date of application ([2]; 9 days later): 26.3 g
Mass (g) of fruit per 100 g of fruit on date of application ([2]; 9 days later): 73.7 g
Estimated amount (g) of transpiration per 100 g of fruit on date of application ([2]; 12 days later): 33.1 g
Mass (g) of fruit per 100 g of fruit on date of application ([2]; 12 days later): 66.9 g
Estimated amount (g) of transpiration per 100 g of fruit on date of application ([2]; 14 days later): 37.6 g
Mass (g) of fruit per 100 g of fruit on date of application ([2]; 14 days later): 62.4 g
Estimated amount (g) of transpiration per 100 g of fruit on date of application ([2]; 16 days later): 41.1 g
Mass (g) of fruit per 100 g of fruit on date of application ([2]; 16 days later): 58.3 g
Estimated amount (g) of transpiration per 100 g of fruit on date of application ([2]; 19 days later): 47.4 g
Mass (g) of fruit per 100 g of fruit on date of application ([2]; 19 days later): 52.8 g

CC(O)C(=O)[O-].[Na+] (racemic) [DL-Sodium lactate, reference compound]
Estimated transpiration ratio (%) Average [1]: 26%
Estimated transpiration ratio (%) First [1]: 26%
Estimated transpiration ratio (%) Second [1]: 25%

CC(=O)[O-].[Na+] [Sodium acetate, sodium acetate]
Ratio (%) of decrease in body weight of fruit (Tomato; dilution ratio 50 (20 g/L)): 14.5%
Ratio (%) of decrease in body weight of fruit (Tomato; dilution ratio 100 (10 g/L)): 15.6%
Ratio (%) of decrease in body weight of fruit (Mikan; dilution ratio 50 (20 g/L)): 11.4%
Ratio (%) of decrease in body weight of fruit (Mikan; dilution ratio 100 (10 g/L)): 11.2%

O=S(=O)([O-])[O-].[K+].[K+] [Potassium sulfate, reference compound]
Estimated transpiration ratio (%) Average [1]: 24%
Estimated transpiration ratio (%) First [1]: 24%

O=P([O-])([O-])O.[K+].[K+] [Dipotassium hydrogen phosphate, dipotassium hydrogen phosphate]
Estimated transpiration ratio (%) Average [1]: 28%
Estimated transpiration ratio (%) First [1]: 28%

O=S(=O)([O-])[O-].[Mg+2] [Magnesium sulfate, reference compound]
Estimated transpiration ratio (%) Average [1]: 23%
Estimated transpiration ratio (%) First [1]: 23%

CC(=O)[O-].[K+] [Potassium acetate, potassium acetate]
Estimated transpiration ratio (%) Average [1]: 35%
Estimated transpiration ratio (%) First [1]: 35%
Estimated transpiration ratio (%) Second [1]: 35%

[Cl-].[Na+] [Sodium chloride, reference compound]
Estimated transpiration ratio (%) Average [1]: 22%
Estimated transpiration ratio (%) First [1]: 22%

N.N.O=S(=O)(O)O [Ammonium sulfate, reference compound]
Estimated transpiration ratio (%) Average [1]: 22%
Estimated transpiration ratio (%) First [1]: 21%
Estimated transpiration ratio (%) Second [1]: 23%

[Ca+2].[Cl-].[Cl-] [Calcium chloride, reference compound]
Sugar content (%) 8 days later, actually measured value ([3]; 10 g/L, 25° C.): 20.0%
Mass (g) 6 days later (Jun. 8) [3, 4]: 86.3 g
Mass (g) 8 days later (Jun. 10) [3, 4]: 81.9 g
action to increase the sugar content in the fruit (comparison) ([3]; 10 g/L, 8 days): almost the same as that of the untreated group
Sugar content (%) 8 days later, calculated value ([3]; 10 g/L, calculated from decrease in mass): 20.8%
Sugar content (%) on date of application (Jun. 2) ([3]; before application): 17.0%

O=C([O-])CC(O)(CC(=O)[O-])C(=O)[O-].[K+].[K+].[K+] [Tripotassium citrate]
Estimated transpiration ratio (%) Average [1]: 30%
Estimated transpiration ratio (%) First [1]: 32%
Estimated transpiration ratio (%) Second [1]: 28%
